# Measurements published in patent US20240360151A1 (SANOFI, priority 2023, published 2024).
# Where a name gives a salt, the structure may show the parent alone.
# Columns and labels:
# NLRP3 inflammasome = target: T1, NLRP3 inflammasome (Homo sapiens, UniProt Q96P20); test: IL-1β secretion assay (NLRP3 IC50) in LPS-primed, nigericin-activated THP-1 cells, HTRF; assay type: cell-based; conditions: monocytic THP-1 cells; LPS 10 ng/mL 3 h priming, then compound + nigericin 10 μM 2 h; relative IC50, 10 concentrations, geometric mean
# T1 construct: endogenous in cells; host or cells: THP-1 monocytic cells
# Outline: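 IL-1β in supernatant read by HTRF after 2 h co-incubation of compound (0.1% DMSO, 10 concentrations, 1:3 series) with nigericin at 10 μM final, following 3 h LPS (10 ng/mL) priming of THP-1 monocytes at 37° C. Inhibition normalised to unactivated and no-compound controls; geometric-mean relative IC50 from 4-parameter logistic model.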
# [1] = test system: NF-kB pathway (TNF-α secretion by THP-1 cells); test: TNF-α secretion assay in LPS-stimulated THP-1 cells, Lumit immunoassay; assay type: cell-based, human; conditions: Homo sapiens, THP-1, 3 h, monocytic THP-1 cells, LPS 10 ng/mL, relative IC50, 10 concentrations, geometric mean
# Method: Monocytic THP-1 cells were maintained in RPMI 1640 media (Gibco 21875)+10% FBS, (Gibco 10500)+1% penicillin/streptomycin (Gibco 15140-122). Cells were then plated at 40,000 cells per well in 384-well cell culture plates (Corning 3542) and maintained with RPMI1640 (Gibco 11835)+5% FBS, (Gibco 10500). Experimental compounds were prepared and added as described above. TNF-α secretion was triggered by the addition of 10 ng/mL LPS (invivoGen, tlrl-3pelps) and cells were incubated for 3 hours. TNF-α levels were monitored directly in the cells plate using an Lumit assay (Lumit TNFa-Human Immunoassay—Promega W6051) according to manufacturers' instructions.
# Data were expressed as percentage of inhibition (I %) as compared to a maximum signal control containing no small molecule (I %=0%) according to the formula: 1%=(1−((Sample−Min))/((Max−Min)))×100, where: • Sample: Signal obtained in the presence of each compound tested, • Max: Maximum signal in the absence of compound added, • Min: Minimum or background signal obtained in the absence of activation signal.
# Relative IC50 (IC50 rel) were obtained from a dose response curve with 10 concentrations. Final IC50 rels are expressed as the geometric mean.
# Relative IC50 values were estimated with Biost@t-SPEED v2.4 internal software based on SAS system using the 4-parameter logistic model according to Ratkovsky and Reedy (D. A. Ratkovsky, T. J. Reedy, Choosing near-linear parameters in the four parameters logistic model radioligands and related assays. Biometrics, 42 (1986), 575-582): Y=A+C/((1+exp(−B*(log(X)−M)))), where: • A: Lower asymptote (BOTTOM), • A+C: Upper asymptote (TOP), • M: the logarithm of the concentration estimated at the inflexion point (the logarithm of the relative IC50), • B: Slope at the inflexion point of the curve.
# T1 sequence (Q96P20 whole entry): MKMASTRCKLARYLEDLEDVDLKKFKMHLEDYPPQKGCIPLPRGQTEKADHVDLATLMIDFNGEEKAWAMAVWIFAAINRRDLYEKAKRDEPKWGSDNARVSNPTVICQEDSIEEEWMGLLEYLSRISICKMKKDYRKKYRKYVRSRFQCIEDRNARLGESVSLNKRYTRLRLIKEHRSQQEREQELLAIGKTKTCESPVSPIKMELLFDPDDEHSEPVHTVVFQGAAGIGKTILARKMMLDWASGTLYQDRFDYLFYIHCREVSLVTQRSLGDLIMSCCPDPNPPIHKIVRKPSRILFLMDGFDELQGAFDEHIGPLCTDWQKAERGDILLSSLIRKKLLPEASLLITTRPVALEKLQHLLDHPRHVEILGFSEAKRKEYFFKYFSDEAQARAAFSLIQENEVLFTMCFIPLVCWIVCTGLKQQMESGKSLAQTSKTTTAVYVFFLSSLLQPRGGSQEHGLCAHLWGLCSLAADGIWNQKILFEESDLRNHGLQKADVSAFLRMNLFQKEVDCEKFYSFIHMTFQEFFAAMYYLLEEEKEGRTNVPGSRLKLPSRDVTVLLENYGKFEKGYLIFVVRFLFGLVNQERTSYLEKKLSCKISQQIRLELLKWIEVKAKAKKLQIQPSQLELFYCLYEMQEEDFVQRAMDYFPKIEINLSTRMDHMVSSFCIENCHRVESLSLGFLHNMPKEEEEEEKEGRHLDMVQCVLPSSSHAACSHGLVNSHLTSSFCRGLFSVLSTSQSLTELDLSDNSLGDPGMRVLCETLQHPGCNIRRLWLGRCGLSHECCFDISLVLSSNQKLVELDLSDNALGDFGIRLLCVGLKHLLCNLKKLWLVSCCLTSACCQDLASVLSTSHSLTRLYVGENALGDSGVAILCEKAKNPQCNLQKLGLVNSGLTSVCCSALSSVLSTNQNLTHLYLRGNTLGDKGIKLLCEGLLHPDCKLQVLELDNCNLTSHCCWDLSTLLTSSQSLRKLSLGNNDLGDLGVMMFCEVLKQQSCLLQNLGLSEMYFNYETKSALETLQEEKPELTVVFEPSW
Compound,IC50 (NLRP3 inflammasome) [nM],IC50 [1] [nM]
"CC(=O)N1CC[C@H]2OCCN(c3ccc(-c4c(C)cc(C(F)(F)F)cc4O)nn3)[C@H]2C1 (racemic) [Example 214, 1-[rac-(4aS,8aR)-4-[6-[2-hydroxy-6-methyl-4-(trifluoromethyl)phenyl]pyridazin-3-yl]-3,4a,5,7,8,8a-hexahydro-2H-pyrido[4,3-b][1,4]oxazin-6-yl]ethanone]",36,> 10000
"Cc1cc(Cl)cc(O)c1-c1ccc(N2CCO[C@H]3CCNC[C@H]32)nn1 (racemic) [Example 221, 2-[6-[rac-(4aR,8aS)-2,3,4a,5,6,7,8,8a-octahydropyrido[4,3-b][1,4]oxazin-4-yl]pyridazin-3-yl]-5-chloro-3-methyl-phenol]",18,> 10000
"CC(=O)N1CC[C@@H]2OCCN(c3ccc(-c4c(C)cc(Cl)cc4O)nn3)[C@@H]2C1 (racemic) [Example 222, 1-[rac-(4aR,8aS)-4-[6-(4-chloro-2-hydroxy-6-methyl-phenyl)pyridazin-3-yl]-3,4a,5,7,8,8a-hexahydro-2H-pyrido[4,3-b][1,4]oxazin-6-yl]ethanone]",42,> 10000
"Cc1cc(C)c(-c2ccc(N3CCO[C@H]4CCN(C)C[C@H]43)nn2)c(O)c1 (racemic) [Example 225, 2-[6-[rac-(4aR,8aS)-6-methyl-3,4a,5,7,8,8a-hexahydro-2H-pyrido[4,3-b][1,4]oxazin-4-yl]pyridazin-3-yl]-3,5-dimethyl-phenol]",3,> 10000
"Cc1cc(C(F)(F)F)cc(O)c1-c1ccc(N2CCO[C@H]3CCN(C)C[C@H]32)nn1 (racemic) [Example 226, 2-[6-[rac-(4aR,8aS)-6-methyl-3,4a,5,7,8,8a-hexahydro-2H-pyrido[4,3-b][1,4]oxazin-4-yl]pyridazin-3-yl]-3-methyl-5-(trifluoromethyl)phenol]",2,> 10000
"CC(=O)N1C[C@@H]2CCN(c3ccc(-c4c(C)cc(C(F)(F)F)cc4O)nn3)[C@@H]2C1 (racemic) [Example 228, 1-[rac-(3aS,6aS)-1-[6-[2-hydroxy-6-methyl-4-(trifluoromethyl)phenyl]pyridazin-3-yl]-2,3,3a,4,6,6a-hexahydropyrrolo[3,4-b]pyrrol-5-yl]ethanone]",271,> 10000
"Cc1cc(C(F)(F)F)cc(O)c1-c1ccc(N2CC[C@H]3CNC[C@H]32)nn1 (racemic) [Example 229, 2-[6-[rac-(3aS,6aS)-3,3a,4,5,6,6a-hexahydro-2H-pyrrolo[3,4-b]pyrrol-1-yl]pyridazin-3-yl]-3-methyl-5-(trifluoromethyl)phenol]",42,> 10000
"CCN1C[C@@H]2CCN(c3ccc(-c4c(C)cc(C(F)(F)F)cc4O)nn3)[C@@H]2C1 (racemic) [Example 243, 2-[6-[rac-(3aS,6aS)-5-ethyl-2,3,3a,4,6,6a-hexahydropyrrolo[3,4-b]pyrrol-1-yl]pyridazin-3-yl]-3-methyl-5-(trifluoromethyl)phenol]",21,> 10000
"Cc1cc(C(F)(F)F)cc(O)c1-c1ccc(N2CC[C@H]3CNC[C@H]3C2=O)nn1 (racemic) [Example 264, rac-(3aS,7aR)-5-[6-[2-hydroxy-6-methyl-4-(trifluoromethyl)phenyl]pyridazin-3-yl]-2,3,3a,6,7,7a-hexahydro-1H-pyrrolo[3,4-c]pyridin-4-one, hydrochloride]",69,> 10000
"Cc1cc(C(F)(F)F)cc(O)c1-c1ccc(N2CC[C@H]3CN(C)C[C@H]32)nn1 (racemic) [Example 265, 2-[6-[rac-(3aS,6aS)-5-methyl-2,3,3a,4,6,6a-hexahydropyrrolo[3,4-b]pyrrol-1-yl]pyridazin-3-yl]-3-methyl-5-(trifluoromethyl)phenol]",314,> 10000
"Cc1cc(C(F)(F)F)cc(O)c1-c1ccc(N2CC[C@H]3CNC[C@@H]3C2=O)nn1 (racemic) [Example 269, rac-(3aS,7aS)-5-[6-[2-hydroxy-6-methyl-4-(trifluoromethyl)phenyl]pyridazin-3-yl]-2,3,3a,6,7,7a-hexahydro-1H-pyrrolo[3,4-c]pyridin-4-one, hydrochloride]",404,> 10000
"Cc1cc(C)c(-c2ccc(N3CC[C@@H]4CCN(C)C[C@@H]43)nn2)c(O)c1 (racemic) [Example 342, 3,5-dimethyl-2-[6-[rac-(3aS,7aR)-6-methyl-3,3a,4,5,7,7a-hexahydro-2H-pyrrolo[2,3-c]pyridin-1-yl]pyridazin-3-yl]phenol]",2,> 10000
"CCN1C[C@@H]2OCCN(c3ccc(-c4c(C)cc(C(F)(F)F)cc4O)nn3)[C@@H]2C1 (racemic) [Example 361, 3-methyl-2-[6-[rac-(4aR,7aS)-6-ethyl-2,3,4a,5,7,7a-hexahydropyrrolo[3,4-b][1,4]oxazin-4-yl]pyridazin-3-yl]-5-(trifluoromethyl)phenol]",8,> 10000
"Cc1cccc(O)c1-c1ccc(N2CC[C@@H]3CCN(C)C[C@@H]32)nn1 (racemic) [Example 385, 3-methyl-2-[6-[rac-(3aS,7aR)-6-methyl-3,3a,4,5,7,7a-hexahydro-2H-pyrrolo[2,3-c]pyridin-1-yl]pyridazin-3-yl]phenol]",2,> 10000
"CN1CC[C@H]2CCN(c3ccc(-c4c(O)cccc4C(F)(F)F)nn3)[C@H]2C1 (racemic) [Example 389, 2-[6-[rac-(3aS,7aR)-6-methyl-3,3a,4,5,7,7a-hexahydro-2H-pyrrolo[2,3-c]pyridin-1-yl]pyridazin-3-yl]-3-(trifluoromethyl)phenol]",2,> 10000
"Cc1cc(C)c(-c2ccc(N3CCO[C@H]4CCN(C5CCC5)C[C@H]43)nn2)c(O)c1 (single isomer, unassigned) [Example 10]",178,> 10000

# Compounds with a lower IC50 (NLRP3 inflammasome), results first:
IC50 (NLRP3 inflammasome) [nM],IC50 [1] [nM],Compound
1,> 10000,"CCN1CC[C@@H]2OCCN(c3ccc(-c4c(C)cc(Cl)cc4O)nn3)[C@@H]2C1 (racemic) [Example 223, 5-chloro-3-methyl-2-[6-[rac-(4aR,8aS)-6-ethyl-3,4a,5,7,8,8a-hexahydro-2H-pyrido[4,3-b][1,4]oxazin-4-yl]pyridazin-3-yl]phenol]"
1,> 10000,"Cc1cc(Cl)cc(O)c1-c1ccc(N2CCO[C@H]3CCN(C)C[C@H]32)nn1 (racemic) [Example 224, 5-chloro-3-methyl-2-[6-[rac-(4aR,8aS)-6-methyl-3,4a,5,7,8,8a-hexahydro-2H-pyrido[4,3-b][1,4]oxazin-4-yl]pyridazin-3-yl]phenol]"
1,> 10000,"Cc1ccc(-c2nnc(N3CC[C@@H]4CCN(C)C[C@@H]43)cc2C)c(O)c1 (racemic) [Example 341, 5-methyl-2-[4-methyl-6-[rac-(3aS,7aR)-6-methyl-3,3a,4,5,7,7a-hexahydro-2H-pyrrolo[2,3-c]pyridin-1-yl]pyridazin-3-yl]phenol]"
1,> 10000,"Cc1cc(C(F)(F)F)cc(O)c1-c1ccc(N2CC[C@@H]3CCN(C)C[C@@H]32)nn1 (racemic) [Example 371, 2-[6-[rac-(3aS,7aR)-6-methyl-3,3a,4,5,7,7a-hexahydro-2H-pyrrolo[2,3-c]pyridin-1-yl]pyridazin-3-yl]-3-methyl-5-(trifluoromethyl)phenol]"
1,> 10000,"CCN1CC[C@H]2CCN(c3ccc(-c4c(C)cc(C(F)(F)F)cc4O)nn3)[C@H]2C1 (racemic) [Example 378, 2-[6-[rac-(3aS,7aR)-6-ethyl-3,3a,4,5,7,7a-hexahydro-2H-pyrrolo[2,3-c]pyridin-1-yl]pyridazin-3-yl]-3-methyl-5-(trifluoromethyl)phenol]"
1,> 10000,"CCc1cccc(O)c1-c1ccc(N2CC[C@@H]3CCN(C)C[C@@H]32)nn1 (racemic) [Example 388, 3-ethyl-2-[6-[rac-(3aS,7aR)-6-methyl-3,3a,4,5,7,7a-hexahydro-2H-pyrrolo[2,3-c]pyridin-1-yl]pyridazin-3-yl]phenol]"
0.4,> 10000,"Cc1cc(N2CC[C@@H]3CCN(C)C[C@@H]32)nnc1-c1ccc(C(F)(F)F)cc1O (racemic) [Example 340, 2-[4-methyl-6-[rac-(3aS,7aR)-6-methyl-3,3a,4,5,7,7a-hexahydro-2H-pyrrolo[2,3-c]pyridin-1-yl]pyridazin-3-yl]-5-(trifluoromethyl)phenol]"
